pEC50: −log10 of the molar value.

The target of this assay is CB1 cannabinoid receptor (CB1R) (Mus musculus, UniProt P47746). Put plainly: inhibition of forskolin-activated cAMP accumulation in N18TG2 cells. The class given is cell-based. (Cyclic AMP is a second messenger, typically raised through Gs and lowered through Gi signalling.)
Chain of CB1 cannabinoid receptor (CB1R) (P47746 whole entry): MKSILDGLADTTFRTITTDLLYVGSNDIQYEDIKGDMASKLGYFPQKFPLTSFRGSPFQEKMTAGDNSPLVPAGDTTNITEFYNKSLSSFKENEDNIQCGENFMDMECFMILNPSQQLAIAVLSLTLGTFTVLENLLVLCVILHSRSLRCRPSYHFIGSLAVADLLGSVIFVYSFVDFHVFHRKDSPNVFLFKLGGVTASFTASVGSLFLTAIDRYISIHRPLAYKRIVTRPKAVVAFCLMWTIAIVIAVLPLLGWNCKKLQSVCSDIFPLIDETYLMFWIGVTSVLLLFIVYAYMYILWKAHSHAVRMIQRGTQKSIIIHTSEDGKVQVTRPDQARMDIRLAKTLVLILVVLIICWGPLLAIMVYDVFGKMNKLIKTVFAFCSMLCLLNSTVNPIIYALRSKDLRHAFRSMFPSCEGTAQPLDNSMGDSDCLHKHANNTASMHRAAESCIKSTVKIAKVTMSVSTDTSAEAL

For `CCCCCCC(C)(C)c1ccc([C@@H]2C[C@@H](O)CC[C@H]2CCCO)c(O)c1` [CP55940, (-)-3-[2-hydroxyl-4-(1,1-dimethylheptyl)phenyl]-4-[3-hydroxylpropyl] cyclohexan-1-ol], the negative-log EC50 (pEC50) (as a rule, the EC50 on a negative log10 scale, so that one unit is a factor of ten) is 8.51.

The values are drawn from paper PMC5497837 (Journal of basic and clinical physiology and pharmacology, 2016).
